pIC50: −log10 of the molar value.
Legend:
Type in all cases: biochemical
CDK4 = target: T1, CDK4 (Homo sapiens, UniProt P11802); assay: CDK4 substrate phosphorylation assay (Rb protein, 33P-ATP); conditions: Inhibition of CDK4
T1 construct: made in house
Protocol: (§1) The compounds of the present invention have valuable pharmacologic properties. Different compounds from this class are particularly effective at inhibiting CDK2 and/or CDK4 enzymes at concentrations, which range from 0.0001 to 1 μM and additionally show specificity relative to other kinases. Substrate phosphorylation assays were carried out as follows:
Cyclin D1 and cyclin-dependent kinase 4 were expressed utilizing a baculovirus expression system. The catalytic activity of CDK4 protein was assayed by measuring the phosphorylation of Rb protein. A truncated Rb protein (residues 773-928 of the native retinoblastoma protein, fused to glutathione S-transferase to facilitate purification) was used as the phosphoryl acceptor. The assay conditions were 100 mM HEPES (N-[2-hydroxyethyl]piperzine-N′-[2-ethanesulfonic acid]), pH 7.5, 0.5 μM GST-Rb protein, 1 μCi/mL [^33P]-ATP (1 nM-20 μM), 5-20 mM MgCl2, 2.5 mM EDTA, 1 mM dithiotheitol, 0.2 mg/mL bovine serum albumin, 2% (v/v) dimethyl sulfoxide (DMSO), CDK4 enzyme (5-50 nM) in a final volume of 50 μL. Reactions were incubated for time periods of 10-60 min at 30° C. and terminated by the addition of 50 μL quench (1 mM ATP/100 mM EDTA, pH 7.0). Detection of protein phosphorylation was accomplished by scintillation counting following collection of protein in 96 well plates coated with Glutathione or trapping of protein onto phosphocellulose filters. Counts detected by these methodologies minus the appropriate background were assumed to be proportional to the reaction initial rates. IC50 values were determined by measuring enzyme activity in the presence of different inhibitor concentrations (0.1 nM to 50 μM). IC50s were determined by a least squares fit to the equation CPM=Vmax*(1−([I]/(K+[I])))+nsb, or pIC50s were determined by a fit to the equation CPM=nsb+(Vmax−nsb)/(1+(x/10^x−pIC50)), where nsb are the background counts.

CDK2 = target: T2, CDK2 (Homo sapiens, UniProt P24941); assay: CDK2 substrate phosphorylation assay (biotinylated peptide, 32P-ATP); conditions: Inhibition of CDK2
T2 construct: made in house
Protocol: as §1
Cyclin dependent protein kinase 2 assays utilized the peptide Biotin-aminohexyl-ARRPMSPKKKA-NH2 as phosphoryl group acceptor. CDK2 was expressed utilizing a baculovirus expression system and was partially purified to comprise 20-80% of total protein, with no detectable competing reactions present. Typically, assays were performed by incubating enzyme (0.2-10 nM), with and without inhibitor, peptide substrate (1-10 nM), [g-^32P]ATP (1-20 nM), and 10-20 mM Mg^2+ for periods of time generally within the range 10-120 minutes. Reactions were terminated with 0.2-2 volumes of either 20% acetic acid or 50-100 mM EDTA buffered to pH 7 (substrate consumption <20%). The buffer employed in enzyme assay was 100 mM HEPES pH 7.5 containing 0.1 mg/mL BSA and 5% DMSO. Inhibitors were diluted in 100% DMSO prior to addition into the assay. Detection of peptide phosphorylation was accomplished by scintillation counting following either collection of peptide onto phosphocellulose filters (for reactions stopped with acetic acid), collection of peptide in wells of 96 well plates coated with Streptavidin (Pierce) (reactions were stopped with EDTA), or addition of Avidin coated Scintillant impregnated beads (Scintillation Proximity Assays from Amersham, reactions were stopped with EDTA). Counts detected by any of these methodologies minus the appropriate background (assays with additional 40 mM EDTA or lacking peptide substrate) were assumed to be proportional to the reaction initial rates, and IC50s were determined by a least squares fit to the equation CPM=Vmax*(1−([I]/(K+[I])))+nsb, or −pIC50s were determined by a fit to the equation CPM=nsb+(Vmax−nsb)/(1+(x/10^x−pIC50)), where nsb are the background counts. Filters are washed four times with 75 mM phosphoric acid. Radioactivity was determined by liquid scintillation counting.

hVEGFR2 = hVEGFR2 (Homo sapiens, UniProt P35968); assay: VEGFR2 HTRF assay; conditions: Inhibition of VEGFR2
Protocol: The compounds of the present invention elicit important and measurable pharmacological responses. Different compounds from this class are particularly effective at inhibiting VEGFR2 enzymes, as described by the VEGFR2 HTRF assay below, at concentrations, which range from 0.0001 to 1 μM.
The assays were performed in 96-well black plates. 10 nM hVEGFR2 was used to phosphorylate 0.36 μM peptide (Biotin-Ahx-EEEEYFELVAKKKK) in the presence of 75 μM ATP, 5 mM MgCl2, 0.3 mM DTT, 0.1 mg/ml BSA, and 0.1 M HEPES (pH 7.5). 10 μl 0.5 M EDTA was added to reactions as negative controls. The 50 μl kinase reaction with or without inhibitors in 5% DMSO was carried out at room temperature for 45 minutes, then stopped by 40 μl of 125 mM EDTA. 2.4 μg/ml Streptavidin-APC and 0.15 μg/ml Eu-α-pY, in the presence of 0.1 mg/ml BSA, 0.1 M HEPES (pH7.5), were added to a final volume of 140 μl. The plate was incubated for 10 min at room temperature (22° C.) and read on the Victor with the time resolved fluorescence mode by exciting at 340 nm and reading the emission at 665 nm.
• Peptide from Synpep (Dublin, Calif.) • ATP, MgCl2, DTT, BSA, HEPES, EDTA, DMSO from Sigma Streptavidin-APC from Molecular Probes (Eugene, Oreg.) • Eu-α-pY from EG&G Wallac (Gaithersburg, Md.)

Chain of hVEGFR2 (P35968 20-1356): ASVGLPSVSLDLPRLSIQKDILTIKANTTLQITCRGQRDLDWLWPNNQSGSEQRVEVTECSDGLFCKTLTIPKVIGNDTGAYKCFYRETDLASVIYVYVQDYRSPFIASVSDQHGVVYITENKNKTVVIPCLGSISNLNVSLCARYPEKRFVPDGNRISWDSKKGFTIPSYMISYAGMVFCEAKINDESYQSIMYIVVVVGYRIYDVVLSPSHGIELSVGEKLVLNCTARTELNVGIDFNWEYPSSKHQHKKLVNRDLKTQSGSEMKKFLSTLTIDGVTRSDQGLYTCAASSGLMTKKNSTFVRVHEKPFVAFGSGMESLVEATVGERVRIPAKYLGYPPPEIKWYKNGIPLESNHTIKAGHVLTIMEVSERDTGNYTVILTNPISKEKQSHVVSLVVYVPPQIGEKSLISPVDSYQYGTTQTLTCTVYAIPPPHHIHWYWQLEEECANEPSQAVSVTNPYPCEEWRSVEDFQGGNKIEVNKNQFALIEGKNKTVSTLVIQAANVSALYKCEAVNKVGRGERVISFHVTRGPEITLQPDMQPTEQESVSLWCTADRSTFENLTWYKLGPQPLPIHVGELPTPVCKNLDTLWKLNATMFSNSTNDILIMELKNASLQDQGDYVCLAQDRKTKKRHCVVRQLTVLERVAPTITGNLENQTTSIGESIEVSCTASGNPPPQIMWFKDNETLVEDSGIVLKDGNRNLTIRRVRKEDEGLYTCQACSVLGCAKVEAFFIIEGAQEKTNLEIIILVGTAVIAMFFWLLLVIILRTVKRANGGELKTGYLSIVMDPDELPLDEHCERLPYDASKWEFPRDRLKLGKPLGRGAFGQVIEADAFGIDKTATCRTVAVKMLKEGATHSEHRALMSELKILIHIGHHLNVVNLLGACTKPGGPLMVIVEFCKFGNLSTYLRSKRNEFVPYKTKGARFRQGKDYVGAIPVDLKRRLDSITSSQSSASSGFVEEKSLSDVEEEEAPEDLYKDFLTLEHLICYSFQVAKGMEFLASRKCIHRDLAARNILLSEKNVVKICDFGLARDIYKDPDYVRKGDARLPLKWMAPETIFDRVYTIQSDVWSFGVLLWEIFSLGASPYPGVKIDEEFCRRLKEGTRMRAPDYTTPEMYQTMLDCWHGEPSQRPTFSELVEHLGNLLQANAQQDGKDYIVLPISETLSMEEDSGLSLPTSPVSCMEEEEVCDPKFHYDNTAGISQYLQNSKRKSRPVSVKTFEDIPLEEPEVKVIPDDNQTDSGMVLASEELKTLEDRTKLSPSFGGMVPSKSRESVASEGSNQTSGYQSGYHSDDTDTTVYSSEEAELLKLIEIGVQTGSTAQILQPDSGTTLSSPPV
T1 sequence (P11802 whole entry, species assumed): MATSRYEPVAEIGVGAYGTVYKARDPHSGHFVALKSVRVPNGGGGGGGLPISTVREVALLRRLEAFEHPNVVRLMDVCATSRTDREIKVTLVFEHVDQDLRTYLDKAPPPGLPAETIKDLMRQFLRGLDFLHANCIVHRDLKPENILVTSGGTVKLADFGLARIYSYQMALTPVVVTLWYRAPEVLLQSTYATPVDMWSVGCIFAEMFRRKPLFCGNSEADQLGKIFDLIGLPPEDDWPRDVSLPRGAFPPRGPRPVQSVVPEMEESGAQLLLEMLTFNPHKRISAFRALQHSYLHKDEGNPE
T1 sequence (P24385 whole entry partner, species assumed): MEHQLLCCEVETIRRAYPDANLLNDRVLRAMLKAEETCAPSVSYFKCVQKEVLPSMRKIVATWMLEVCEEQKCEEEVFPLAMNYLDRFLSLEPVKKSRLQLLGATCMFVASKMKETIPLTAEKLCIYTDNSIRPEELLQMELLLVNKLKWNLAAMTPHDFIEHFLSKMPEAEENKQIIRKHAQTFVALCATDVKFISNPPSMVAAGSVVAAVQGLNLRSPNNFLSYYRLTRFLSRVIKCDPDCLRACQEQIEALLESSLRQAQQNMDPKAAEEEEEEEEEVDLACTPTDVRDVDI

| Compound | pIC50 (CDK4) | pIC50 (CDK2) | pIC50 (hVEGFR2) |
| --- | --- | --- | --- |
| COc1cccc(-c2cnc(Nc3ccc(CN4CCOCC4)cc3)o2)c1 [Example 11, 5-(3-Methoxyphenyl)-N-[4-(morpholin-4-ylmethyl)phenyl]-1,3-oxazol-2-amine] | > 6.00 | > 6.00 | > 6.00 |
| COc1cccc(-c2cnc(Nc3ccc(CN(C)C)cc3)o2)c1 [Example 40, N-{4-[(dimethylamino)methyl]phenyl}-5-(3-methoxyphenyl)-1,3-oxazol-2-amine] | > 7.00 | > 6.00 | > 6.00 |
| COc1cccc(-c2cnc(Nc3ccc(N4CCN(C)CC4)c(Cl)c3)o2)c1 [Example 19, N-[3-chloro-4-(4-methylpiperazin-1-yl)phenyl]-5-(3-methoxyphenyl)-1,3-oxazol-2-amine] | > 7.00 | > 6.00 | > 6.00 |
| COc1cccc(-c2cnc(Nc3ccc(CN4CCCC4)cc3)o2)c1 [Example 44, 5-(3-methoxyphenyl)-N-[4-(pyrrolidin-1-ylmethyl)phenyl]-1,3-oxazol-2-amine] | > 7.00 | > 6.00 | > 7.00 |
| CCN(CC)Cc1ccc(Nc2ncc(-c3cccc(OC)c3)o2)cc1 [Example 45, N-{4-[(diethylamino)methyl]phenyl}-5-(3-methoxyphenyl)-1,3-oxazol-2-amine] | > 7.00 | > 6.00 | > 6.00 |
| COc1cccc(-c2cnc(Nc3ccc(CN4CCCCC4)cc3)o2)c1 [Example 43, 5-(3-methoxyphenyl)-N-[4-(piperidin-1-ylmethyl)phenyl]-1,3-oxazol-2-amine] | > 7.00 | > 6.00 | > 6.00 |
| COc1cccc(-c2cnc(Nc3ccc(N4CCCCC4)cc3)o2)c1 [Example 10, 5-(3-Methoxyphenyl)-N-(4-piperidin-1-ylphenyl)-1,3-oxazol-2-amine] | > 5.00 |  | > 6.00 |
| Cc1cc(Nc2ncc(-c3cccc(OC4CCCC4)c3)o2)cnc1N1CCN(C)CC1 [Example 37, N-{5-[3-(cyclopentyloxy)phenyl]-1,3-oxazol-2-yl}-5-methyl-6-(4-methylpiperazin-1-yl)pyridin-3-amine] | > 7.00 | > 6.00 | > 6.00 |
| CCN1CCN(c2ccc(Nc3ncc(-c4ccccc4)o3)cc2)CC1 [Example 7, N-[4-(4-Ethylpiperazin-1-yl)phenyl]-5-phenyl-1,3-oxazol-2-amine] | > 6.00 | > 5.00 | > 6.00 |
| CN1CCN(Cc2ccc(Nc3ncc(-c4ccccc4)o3)cc2)CC1 [Example 39, N-{4-[(4-methylpiperazin-1-yl)methyl]phenyl}-5-phenyl-1,3-oxazol-2-amine] | > 6.00 | > 6.00 | > 6.00 |
| CN1CCN(c2ccc(Nc3ncc(-c4cccc(OC5CCCCC5)c4)o3)cc2)CC1 [Example 18, 5-[3-(cyclohexyloxy)phenyl]-N-[4-(4-methylpiperazin-1-yl)phenyl]-1,3-oxazol-2-amine] | > 7.00 | > 7.00 | > 6.00 |
| Oc1cccc(-c2cnc(Nc3ccccc3)o2)c1 [Example 2, 3-(2-anilino-1,3-oxazol-5-yl)phenol] | > 6.00 | > 6.00 | > 6.00 |
| CN1CCN(c2ccc(Nc3ncc(-c4cccc(OCc5ccccc5)c4)o3)cc2)CC1 [Example 15, 5-[3-(Benzyloxy)phenyl]-N-[4-(4-methylpiperazin-1-yl)phenyl]-1,3-oxazol-2-amine] | > 7.00 | > 6.00 | > 6.00 |
| c1cc(OC2CCCC2)cc(-c2cnc(Nc3ccc(N4CCSCC4)cc3)o2)c1 [Example 30, 5-[3-(Cyclopentyloxy)phenyl]-N-(4-thiomorpholin-4-ylphenyl)-1,3-oxazol-2-amine] | > 6.00 | > 5.00 | > 6.00 |
| COc1cccc(-c2cnc(Nc3ccc(CN4CCN(C)CC4)cc3)o2)c1 [Example 38, 5-(3-methoxyphenyl)-N-{4-[(4-methylpiperazin-1-yl)methyl]phenyl}-1,3-oxazol-2-amine] | > 6.00 | > 6.00 | > 6.00 |
| COc1cccc(-c2cnc(Nc3ccc(N4CCN(C)CC4)cc3C)o2)c1 [Example 24, 5-(3-methoxyphenyl)-N-[2-methyl-4-(4-methylpiperazin-1-yl)phenyl]-1,3-oxazol-2-amine] | > 6.00 | > 5.00 | > 6.00 |
| COc1cccc(-c2cnc(Nc3ccc(CCN(C)C)cc3)o2)c1 [Example 42] | > 7.00 | > 6.00 | > 6.00 |
| CCN(CC)CCNC(=O)c1ccc(Nc2ncc(-c3cccc(OC4CCCC4)c3)o2)cc1 [Example 48, 4-({5-[3-(cyclopentyloxy)phenyl]-1,3-oxazol-2-yl}amino)-N-[2-(diethylamino)ethyl]benzamide] | > 7.00 | > 6.00 | > 6.00 |
| COc1cccc(-c2cnc(Nc3ccc(N4CCN(C)CC4)c(F)c3)o2)c1 [Example 20, N-[3-fluoro-4-(4-methylpiperazin-1-yl)phenyl]-5-(3-methoxyphenyl)-1,3-oxazol-2-amine] | > 7.00 | > 6.00 | > 6.00 |
| CN1CCN(c2ccc(Nc3ncc(-c4cccc(OC5CCCC5)c4)o3)cc2C(F)(F)F)CC1 [Example 25, 5-[3-(Cyclopentyloxy)phenyl]-N-[4-(4-methylpiperazin-1-yl)-3-(trifluoromethyl)phenyl]-1,3-oxazol-2-amine] | > 7.00 | > 7.00 | > 6.00 |
| CN1CCN(c2ccc(Nc3ncc(-c4cccc(OC5CCCC5)c4)o3)cc2)CC1 [Example 13, 5-[3-(cyclopentyloxy)phenyl]-N-[4-(4-methylpiperazin-1-yl)phenyl]-1,3-oxazol-2-amine] | > 7.00 | > 7.00 | > 7.00 |
| CN1CCN(c2ccc(Nc3ncc(-c4cccc(O)c4)o3)cc2)CC1 [Example 29, 3-(2-{[4-(4-methylpiperazin-1-yl)phenyl]amino}-1,3-oxazol-5-yl)phenol] | > 7.00 |  | > 6.00 |
| CN(C)Cc1ccc(Nc2ncc(-c3cccc(OC4CCCC4)c3)o2)cc1 [Example 41, 5-[3-(cyclopentyloxy)phenyl]-N-{4-[(dimethylamino)methyl]phenyl}-1,3-oxazol-2-amine] | > 7.00 |  | > 6.00 |

Source: patent US20070142437A1, “CHEMICAL COMPOUNDS” (priority 2005, published 2007)
